{"source": "paper PMC12148480", "about": "(The Journal of Biological Chemistry, 2025)", "key": {"CaMKIIα [1]": {"biological_target": "CaMKIIα", "details": "CaMKIIα binding assays previously reported; cited from earlier work"}, "[2]": {"details": "cited from earlier work"}, "CaMKIIα [3]": {"tested_on": "CaMKIIα", "details": "cited from earlier work"}, "CaMKIIβ L467W/C533R [4]": {"biological_target": "T1, CaMKIIβ L467W/C533R (Rattus norvegicus, UniProt P08413, C533R/L467W)", "T1 construct": "host or cells: HEK293T whole-cell homogenate", "T1 sequence (P08413 whole entry L467W/C533R)": "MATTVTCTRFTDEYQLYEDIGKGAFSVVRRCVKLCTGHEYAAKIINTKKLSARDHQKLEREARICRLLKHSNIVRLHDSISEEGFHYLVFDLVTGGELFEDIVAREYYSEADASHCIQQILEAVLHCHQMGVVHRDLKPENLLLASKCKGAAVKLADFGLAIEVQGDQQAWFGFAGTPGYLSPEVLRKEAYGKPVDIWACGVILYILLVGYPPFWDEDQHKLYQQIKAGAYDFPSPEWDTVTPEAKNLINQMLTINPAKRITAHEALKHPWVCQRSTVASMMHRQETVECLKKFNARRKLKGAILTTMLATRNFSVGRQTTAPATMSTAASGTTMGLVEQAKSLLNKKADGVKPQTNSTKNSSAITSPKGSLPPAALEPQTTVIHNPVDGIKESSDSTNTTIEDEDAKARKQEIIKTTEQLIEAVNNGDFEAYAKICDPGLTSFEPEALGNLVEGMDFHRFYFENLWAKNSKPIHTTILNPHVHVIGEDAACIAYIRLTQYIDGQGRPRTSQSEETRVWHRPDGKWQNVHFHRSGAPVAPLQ", "test": "Displacement of [3H]O-5-HDC binding in CaMKIIβ L467W/C533R HEK293T homogenate", "experimental": "(§1) Recombinant HEK293T whole-cell homogenate equilibrium binding experiments were performed similar to that described previously ([14]), using a 48-well assay format. […] The binding reaction was terminated by precipitation with ice-cold acetone (1 h at −20 °C), and radioligand-bound protein was separated from free radioligand by vacuum-filtration through glass fibre (GF/C) filters. Counts (disintegrations per minute [DPM]) were detected by liquid scintillation counting ([14]). Counts for CaMKIIα WT typically ranged from 2000 to 6000 DPM with [^3H]HOCPCA and 1800 to 5000 DPM with [^3H]O-5-HDC, slightly lower for the CaMKIIβ […] mutant. All experiments were performed in technical triplicates using at least three different batches of HEK293T cell homogenates.\n(§2) Data analysis: The specific binding was determined as Total binding subtracted NSB. For the pooling of data from recombinant binding, the specific binding of the variant was normalized to the specific binding of CaMKIIα WT within each experiment.\nSpecific binding (% of control)=Top-Bottom1+10(log(IC50-[compound]))\nwhere top and bottom represent the upper and lower plateaus of the curve, respectively."}, "[5]": {"biological_target": "native CaMKIIα (rat cortical homogenate) (Rattus norvegicus, UniProt P11275)", "sequence (P11275 whole entry)": "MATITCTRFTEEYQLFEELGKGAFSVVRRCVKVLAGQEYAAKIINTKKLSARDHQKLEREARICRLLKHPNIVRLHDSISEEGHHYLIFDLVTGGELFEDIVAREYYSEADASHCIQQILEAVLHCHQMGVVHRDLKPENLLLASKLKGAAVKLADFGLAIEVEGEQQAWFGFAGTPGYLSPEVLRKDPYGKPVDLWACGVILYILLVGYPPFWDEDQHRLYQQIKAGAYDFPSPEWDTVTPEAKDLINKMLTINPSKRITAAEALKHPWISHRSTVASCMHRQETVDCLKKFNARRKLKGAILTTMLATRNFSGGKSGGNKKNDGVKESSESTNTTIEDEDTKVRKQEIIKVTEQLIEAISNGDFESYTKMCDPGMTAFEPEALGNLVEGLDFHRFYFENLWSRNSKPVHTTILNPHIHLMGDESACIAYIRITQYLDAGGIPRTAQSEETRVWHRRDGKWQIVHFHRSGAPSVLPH", "test": "Competitive inhibition of [3H]O-5-HDC binding, rat cortical homogenate", "set-up": "native CaMKIIα (rat cortical homogenate); from tissue; host or cells: rat cerebral cortex homogenate", "from_the_text": "Ki values were obtained from the One Site-Fit Ki model utilizing the following Cheng-Prusoff equation: […]\nWhere [RL] represents the specific radioligand concentration from each experiment and KD is the dissociation constant of [^3H]O-5-HDC acquired from saturation curves."}, "ischemia": {"tested_on": "ischemia", "details": "several mouse models of ischemia; cited from earlier work"}, "[6]": {"biological_target": "CaMKIIα (rat cortical homogenate)", "details": "inhibition of [3H]HOCPCA binding, ref 1 (Leurs et al., PNAS 2021); read-out: Comparative Ki, [3H]HOCPCA binding; cited from earlier work"}, "[7]": {"biological_target": "CaMKIIα-W403L hub protein", "set-up": "method as in PMID 39275999", "details": "SPR, purified CaMKIIα-W403L hub; cited from earlier work"}, "CaMKIIα-WT hub protein": {"biological_target": "CaMKIIα-WT hub protein", "set-up": "method as in PMID 39275999", "details": "SPR, purified CaMKIIα-WT hub; cited from earlier work"}, "CaMKIIα W403L": {"biological_target": "T2, CaMKIIα W403L (Rattus norvegicus, UniProt P11275, W403L)", "T2 construct": "host or cells: HEK293T whole-cell homogenate", "T2 sequence (P11275 whole entry W403L)": "as the sequence (P11275 whole entry) above, with W403L counted along it", "test": "[3H]HOCPCA binding, HEK293T whole-cell homogenate, CaMKIIα W403L", "details": "p = 0.0038", "experimental": "as §1, §2"}, "CaMKIIα R433Q": {"biological_target": "T3, CaMKIIα R433Q (Rattus norvegicus, UniProt P11275, R433Q)", "T3 construct": "host or cells: HEK293T whole-cell homogenate", "T3 sequence (P11275 whole entry R433Q)": "as the sequence (P11275 whole entry) above, with R433Q counted along it", "test": "[3H]HOCPCA binding, HEK293T whole-cell homogenate, CaMKIIα R433Q", "details": "40 nM radioligand", "experimental": "as §1, §2"}, "CaMKIIα R453Q": {"biological_target": "T4, CaMKIIα R453Q (Rattus norvegicus, UniProt P11275, R453Q)", "T4 construct": "host or cells: HEK293T whole-cell homogenate", "T4 sequence (P11275 whole entry R453Q)": "as the sequence (P11275 whole entry) above, with R453Q counted along it", "test": "[3H]HOCPCA binding, HEK293T whole-cell homogenate, CaMKIIα R453Q", "details": "normalized to CaMKIIα WT", "experimental": "as §1, §2"}, "CaMKIIγ C518R": {"biological_target": "T5, CaMKIIγ C518R (Rattus norvegicus, UniProt P11730, C518R)", "T5 construct": "host or cells: HEK293T whole-cell homogenate", "T5 sequence (P11730 whole entry C518R)": "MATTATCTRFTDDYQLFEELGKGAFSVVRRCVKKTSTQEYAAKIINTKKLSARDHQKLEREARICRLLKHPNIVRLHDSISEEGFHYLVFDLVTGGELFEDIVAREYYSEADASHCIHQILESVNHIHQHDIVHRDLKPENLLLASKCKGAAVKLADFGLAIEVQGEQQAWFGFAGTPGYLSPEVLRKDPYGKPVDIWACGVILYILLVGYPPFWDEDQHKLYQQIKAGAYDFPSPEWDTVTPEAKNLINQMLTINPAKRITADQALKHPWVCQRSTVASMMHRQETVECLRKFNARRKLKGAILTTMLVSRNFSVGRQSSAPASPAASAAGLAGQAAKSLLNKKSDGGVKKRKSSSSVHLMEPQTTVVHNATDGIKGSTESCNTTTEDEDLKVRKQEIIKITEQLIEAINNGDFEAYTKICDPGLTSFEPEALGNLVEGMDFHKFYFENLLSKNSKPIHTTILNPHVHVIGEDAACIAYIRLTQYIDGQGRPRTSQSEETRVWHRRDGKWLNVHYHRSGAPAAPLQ", "test": "[3H]HOCPCA binding, HEK293T whole-cell homogenate, CaMKIIγ C518R", "experimental": "as §1, §2"}, "CaMKIIβ WT": {"biological_target": "T6, CaMKIIβ WT (Rattus norvegicus, UniProt P08413)", "T6 construct": "host or cells: HEK293T whole-cell homogenate", "test": "[3H]HOCPCA binding, HEK293T whole-cell homogenate, CaMKIIβ WT", "experimental": "as §1, §2"}, "CaMKIIβ L467W/C533R [8]": {"biological_target": "T1, CaMKIIβ L467W/C533R", "test": "[3H]HOCPCA binding, HEK293T whole-cell homogenate, CaMKIIβ L467W/C533R", "experimental": "as §1, §2"}, "CaMKIIα R469Q": {"biological_target": "T7, CaMKIIα R469Q (Rattus norvegicus, UniProt P11275, R469Q)", "T7 construct": "host or cells: HEK293T whole-cell homogenate", "T7 sequence (P11275 whole entry R469Q)": "as the sequence (P11275 whole entry) above, with R469Q counted along it", "test": "[3H]HOCPCA binding, HEK293T whole-cell homogenate, CaMKIIα R469Q", "details": "40 nM radioligand", "experimental": "as §1, §2"}, "[9]": {"tested_on": "CaMKIIα (rat cortical homogenate)", "set-up": "method as in earlier work", "details": "comparative value, [3H]HOCPCA binding, ref 1 (Leurs et al., PNAS 2021); cited from earlier work"}, "CaMKIIα H395A": {"biological_target": "T8, CaMKIIα H395A (Rattus norvegicus, UniProt P11275, H395A)", "T8 construct": "host or cells: HEK293T whole-cell homogenate", "T8 sequence (P11275 whole entry H395A)": "as the sequence (P11275 whole entry) above, with H395A counted along it", "test": "[3H]HOCPCA binding, HEK293T whole-cell homogenate, CaMKIIα H395A", "details": "normalized to CaMKIIα WT", "experimental": "as §1, §2"}, "[10]": {"biological_target": "T9, CaMKIIα R433Q/R453Q/R469Q (Rattus norvegicus, UniProt P11275, R433Q/R453Q/R469Q)", "T9 construct": "host or cells: HEK293T whole-cell homogenate", "T9 sequence (P11275 whole entry R433Q/R453Q/R469Q)": "as the sequence (P11275 whole entry) above, with R433Q, R453Q, R469Q counted along it", "test": "[3H]HOCPCA binding, HEK293T whole-cell homogenate, CaMKIIα triple mutant", "details": "CaMKIIα triple mutant RRR433/453/469QQQ", "experimental": "as §1, §2"}, "CaMKIIβ L467W": {"biological_target": "T10, CaMKIIβ L467W (Rattus norvegicus, UniProt P08413, L467W)", "T10 construct": "host or cells: HEK293T whole-cell homogenate", "T10 sequence (P08413 whole entry L467W)": "as the sequence (P08413 whole entry L467W/C533R) above, with R533C counted along it", "test": "[3H]HOCPCA binding, HEK293T whole-cell homogenate, CaMKIIβ L467W", "experimental": "as §1, §2"}, "CaMKIIβ C533R": {"biological_target": "T11, CaMKIIβ C533R (Rattus norvegicus, UniProt P08413, C533R)", "T11 construct": "host or cells: HEK293T whole-cell homogenate", "T11 sequence (P08413 whole entry C533R)": "as the sequence (P08413 whole entry L467W/C533R) above, with W467L counted along it", "test": "[3H]HOCPCA binding, HEK293T whole-cell homogenate, CaMKIIβ C533R", "experimental": "as §1, §2"}, "[11]": {"biological_target": "T12, rat brain cortical homogenates (Rattus norvegicus, UniProt P11275)", "T12 construct": "from tissue; host or cells: rat brain cortical homogenate", "test": "[3H]NCS-382 binding to rat brain cortical homogenates"}}, "note": "“Also recorded” adds a separate entry of the source.", "data": [{"smiles": "O=C(O)Cc1cc(O)ccc1Oc1ccccc1Cl", "values": [{"measurement": "Ki", "setting": "CaMKIIα [1]", "result": 0.027, "unit": "µM"}]}, {"smiles": "O=C(O)Cc1cc(O)ccc1Nc1c(Cl)cccc1Cl", "note": "[5-HDC, 5-hydroxydiclofenac]", "values": [{"measurement": "chemical stability", "setting": "[2]", "result": "chemically unstable"}]}, {"smiles": "O=C(O)CCCO", "note": "[GHB, γ-hydroxybutyric acid]", "values": [{"measurement": "effect on CaMKIIα activity (syntide-2 phosphorylation)", "setting": "CaMKIIα [3]", "result": "not to affect CaMKIIα activity"}, {"measurement": "IC50", "setting": "CaMKIIβ L467W/C533R [4]; IC50, displacement of [3H]O-5-HDC", "result": 710, "unit": "µM"}, {"measurement": "IC50", "setting": "CaMKIIβ L467W/C533R [4]; pIC50 (value in parentheses after IC50), displacement of [3H]O-5-HDC", "result": 676, "unit": "µM"}, {"measurement": "lower affinity in displacing [3H]O-5-HDC than [3H]HOCPCA", "setting": "[5]; rat cortical homogenate", "result": 10, "unit": "fold"}, {"measurement": "neuroprotection", "setting": "ischemia", "result": "neuroprotective"}]}, {"smiles": "O=C(O)C1=CC(O)CC1", "note": "(stereo not drawn) [HOCPCA, 3-hydroxycyclopent-1-enecarboxylic acid]", "values": [{"measurement": "effect on CaMKIIα activity (syntide-2 phosphorylation)", "setting": "CaMKIIα [3]", "result": "not to affect CaMKIIα activity"}, {"measurement": "Ki", "setting": "[5]; Ki", "result": 1.27, "unit": "µM"}, {"measurement": "Ki", "setting": "[5]; pKi ± S.E.M., inhibition of [3H]O-5-HDC binding, rat cortical homogenate, n = 4", "result": 1.17, "unit": "µM"}, {"measurement": "lower affinity in displacing [3H]O-5-HDC than [3H]HOCPCA", "setting": "[5]; rat cortical homogenate", "result": 10, "unit": "fold"}, {"measurement": "neuroprotection", "setting": "ischemia", "result": "neuroprotective"}, {"measurement": "Ki", "setting": "[6]", "result": 0.13, "unit": "µM"}]}, {"smiles": "O=C(O)Cc1cn2nc(-c3ccc(Cl)cc3)ccc2n1", "note": "[PIPA]", "values": [{"measurement": "Kd", "setting": "[7]", "result": 2.8, "unit": "µM"}, {"measurement": "Kd", "setting": "CaMKIIα-WT hub protein", "result": 1.4, "unit": "µM"}]}, {"smiles": "[3H]C1(O)C=C(C(=O)O)CC1", "note": "(stereo not drawn) [[^3H]HOCPCA]", "values": [{"measurement": "specific [3H]HOCPCA binding", "setting": "CaMKIIα W403L", "result": "70 % of WT"}, {"measurement": "specific [3H]HOCPCA binding", "setting": "CaMKIIα R433Q", "result": "completely abolished"}, {"measurement": "specific [3H]HOCPCA binding remaining", "setting": "CaMKIIα R453Q", "result": "7–9%"}, {"measurement": "specific [3H]HOCPCA binding", "setting": "CaMKIIγ C518R", "result": "no specific binding"}, {"measurement": "specific [3H]HOCPCA binding", "setting": "CaMKIIβ WT", "result": "no detected specific [^3H]HOCPCA binding"}, {"measurement": "specific [3H]HOCPCA binding", "setting": "CaMKIIβ L467W/C533R [8]", "result": "no detected specific [^3H]HOCPCA binding; also recorded: Neither of these led to any noticeable radioligand binding"}, {"measurement": "specific [3H]HOCPCA binding", "setting": "CaMKIIα R469Q", "result": "completely abolished"}, {"measurement": "Bmax", "setting": "[9]", "result": 43, "unit": "pmol/mg protein"}, {"measurement": "Kd", "setting": "[9]", "result": 0.26, "unit": "µM"}, {"measurement": "pKd ± SEM", "setting": "[9]", "result": "6.6 ± 0.06"}, {"measurement": "specific [3H]HOCPCA binding remaining", "setting": "CaMKIIα H395A", "result": "7–9%"}, {"measurement": "specific [3H]HOCPCA binding", "setting": "[10]", "result": "completely binding-deficient"}, {"measurement": "specific [3H]HOCPCA binding", "setting": "CaMKIIβ L467W", "result": "no detected specific [^3H]HOCPCA binding; also recorded: Neither of these led to any noticeable radioligand binding"}, {"measurement": "specific [3H]HOCPCA binding", "setting": "CaMKIIβ C533R", "result": "no specific binding"}]}, {"smiles": "O=C(O)Cc1cc(O)c(I)cc1Oc1ccccc1Cl", "note": "[compound 1]", "values": [{"measurement": "affinity", "setting": "[11]", "result": "mid-micromolar"}, {"measurement": "change in affinity in comparison to O-5-HDC", "setting": "[11]", "result": 100, "unit": "X"}]}, {"smiles": "O=C(O)Cc1c(Oc2ccccc2Cl)cc(I)c(O)c1I", "note": "[compound 2]", "values": [{"measurement": "affinity", "setting": "[11]", "result": "mid-micromolar"}, {"measurement": "change in affinity in comparison to O-5-HDC", "setting": "[11]", "result": 100, "unit": "X"}]}]}
